Experimental data from US6774143B1, “Method for treating cells resistant to antineoplastic agents” (Novartis AG, priority 2003, dated 2004).

Columns and labels:
[1] = In vivo hollow fiber assay, body weight of the animals; design: species or system mice; conditions: both experiments
Description: Outbred athymic (nu/nu) female mice (“Chrls:Athymic Nude-nu”, Charles River Laboratories, Wilmington, Mass.) are anesthetized with ip injections of Ketamine/Xylazine (150 mg/kg, and 12 mg/kg body weight, respectively). For the subcutaneous implantation an 11-gauge trocar containing one or two hollow fibers is inserted into an incision made with scissors at the nape of the neck of an animal, and fibers are released by retracting the trocar while depressing the plunger. This procedure is repeated until all three hollow fibers are implanted. One wound clip is used to close the skin incision After the surgery each animal receives a single, subcutaneous injection of 0.4 mg/kg butorphenol to relieve any potential pain. Animals recover from the anesthesia on a heating pad, before retuning to their cages.
One day after the implantation (3 hollow fibers/animal, each hollow fiber containing one cell line: LS 174T, 1A9, and 1A9PTX22) animals are randomly sorted into five groups of six mice/group. […]
Discodermolide is isolated from the sponge Discodermia dissoluta using the method of Gunasekera SP (supra). Multiple batches of compound of similar purity (all>95% pure, as determined by mass spectrometry, and nuclear magnetic resonance analysis) are used throughout the various studies. […]

Bcl-xL = experiment: Western blot, Bcl-xL phosphorylation; format: cell-based, human; conditions: 24 hour treatment
Description: Cells are plated at a density of 1.5×10^6 cells per 100 mm plate. The next day cells are treated with vehicle control (0.1% DMSO) or test compound for 24 h. Cells are harvested by washing monolayers twice with PBS, then lysing with 300 ul of lysis buffer[20 mM Tris (pH 8.0), […], 100 mM NaCl, 0.5% NP40, 0.0125% DOC, 2.5% glycerol, 1 mM vanadate, 25 mM sodium fluoride and protease inhibitor cocktail (1:500 dilution, Sigma)]. Lysates were spun at 12,000× g and the supernatant transferred to a new tube. Protein concentration of the lysates is determined using BCA protein assay Reagent (Pierce). Samples (75 μg) are resolved by SDS-PAGE on a 7.5% or 14% tris-glycine gel for Raf-1 and Bcl-xL, respectively, and transferred to nitrocellulose. Immunodetection is performed as described by Amersham Vistra Fluorescence Western blotting Kit directions with the following modifications: the membrane is blocked with 5% milk (Carnation Non-Fat Dry Milk) in buffer containing 20 mM Tris-HCl (pH=7.4), 100 mM NaCl, and 0.2% Tween 20 (TBST) overnight and is subsequently incubated for 2 h with primary antibody (Santa Cruz C-12 for Raf-1 and Santa Cruz H-62 for Bcl-xL), followed by fluorescein-linked anti-rabbit Ig in 5% milk and anti-fluorescein alkaline phosphatase conjugate in TBST at 1:500 and 1:2000 dilutions, respectively. A Storm 860 (Molecular Dynamics) is used to detect fluorescent product according to the manufacturer's instructions.

SMILES	body weight lost ([1]; discodermolide single 15 mg/kg iv) [%]	Bcl-xL phosphorylation (Bcl-xL; A549 cells)	Bcl-xL phosphorylation (Bcl-xL; MDA-MB-435 cells)	body weight lost ([1]; paclitaxel iv 15 mg/kg once daily for 5 days) [%]
C=C/C=C\[C@H](C)[C@H](OC(N)=O)[C@@H](C)[C@H](O)[C@@H](C)C/C(C)=C\[C@H](C)[C@@H](O)[C@@H](C)/C=C\[C@@H](O)C[C@@H]1OC(=O)[C@H](C)[C@@H](O)[C@H]1C [discodermolide, (+)-Discodermolide]	10	phosphorylated	phosphorylated	
CC(=O)O[C@H]1C(=O)[C@@]2(C)[C@H]([C@H](OC(=O)c3ccccc3)[C@]3(O)C[C@H](OC(=O)[C@H](O)[C@@H](NC(=O)c4ccccc4)c4ccccc4)C(C)=C1C3(C)C)[C@]1(OC(C)=O)CO[C@@H]1C[C@@H]2O [paclitaxel, reference compound]		phosphorylated	phosphorylated	5
